Assay results: patent US20240350422A1, “FORMULATION PROCESS FOR CPMV NANOPARTICLES” (The Regents of the University of California, priority 2021, published 2024)
Where no end group is shown, it is not given here.

Key:
[1] = Observed water / reaction buffer solubility of ligands; details: for solubility in the reaction buffer: 0.01 M potassium phosphate reaction buffer (pH 7.4); for Observed water solubility: Table 1
[2] = Aggregation / dispersion of conjugate particles (photograph, DLS, TEM); type: physicochemical; details: pH 7.4
[3] = Dynamic light scattering (DLS) of plant VNPs and conjugates; type: physicochemical; details: purified conjugate particles; (+F127) = COAT/FORMCOAT, (−F127) = uncoated control
Experimental: DLS. The hydrodynamic diameter of native and conjugated plant VNPs was determined by diluting the samples to 1 mg/mL in 0.01 M potassium phosphate buffer (pH 7.4) followed by measurement using a Zetasizer Nano ZSP/Zen5600 instrument (Malvern Panalytical, Malvern, UK). The particle length was calculated as the weighted mean of the intensity distribution.

CC[C@H](C)[C@H](NC(=O)[C@H](Cc1c[nH]c2ccccc12)NC(=O)CNC(=O)[C@H](CCCNC(=N)N)NC(=O)[C@@H](NC(=O)[C@@H](NC(=O)[C@H](CC(N)=O)NC(=O)[C@H](CO)NC(=O)[C@H](CCCCN)NC(=O)[C@H](CCC(=O)O)NC(=O)[C@@H](NC(=O)[C@H](CO)NC(=O)[C@H](C)NC(=O)[C@H](Cc1ccccc1)NC(=O)CNC(=O)CNC(=O)CNC(=O)[C@@H](N)CS)[C@@H](C)O)[C@@H](C)CC)[C@@H](C)CC)C(=O)N[C@@H](Cc1ccccc1)C(=O)O [COVID-106]
solubility in the reaction buffer [1]: insoluble | Observed water solubility [1]: Poor

CSCC[C@H](NC(=O)[C@H](Cc1c[nH]c2ccccc12)NC(=O)[C@H](CO)NC(=O)[C@H](CCCCN)NC(=O)[C@H](CC(N)=O)NC(=O)[C@H](CC(N)=O)NC(=O)[C@H](CCCCN)NC(=O)[C@H](Cc1c[nH]cn1)NC(=O)[C@H](Cc1ccc(O)cc1)NC(=O)[C@H](Cc1ccc(O)cc1)NC(=O)[C@@H](NC(=O)CNC(=O)[C@H](CC(C)C)NC(=O)[C@H](Cc1ccccc1)NC(=O)[C@@H]1CCCN1C(=O)CNC(=O)CNC(=O)CNC(=O)[C@@H](N)CS)C(C)C)C(=O)O [COVID-153]
solubility in the reaction buffer [1]: insoluble | Observed water solubility [1]: Poor

CC(C)C[C@H](NC(=O)[C@H](Cc1ccc(O)cc1)NC(=O)[C@H](CC(N)=O)NC(=O)[C@H](Cc1ccc(O)cc1)NC(=O)[C@H](CC(N)=O)NC(=O)CNC(=O)CNC(=O)[C@@H](NC(=O)[C@H](CCCCN)NC(=O)[C@H](CO)NC(=O)[C@H](CC(=O)O)NC(=O)[C@H](CC(C)C)NC(=O)[C@H](CC(N)=O)NC(=O)[C@H](CC(N)=O)NC(=O)CNC(=O)CNC(=O)CNC(=O)[C@@H](N)CS)C(C)C)C(=O)N[C@@H](Cc1ccc(O)cc1)C(=O)N[C@@H](CCCNC(=N)N)C(=O)O [COVID-454]
solubility in the reaction buffer [1]: insoluble | Observed water solubility [1]: Poor

CC[C@H](C)[C@H](NC(=O)[C@H](Cc1ccccc1)NC(=O)[C@H](CO)NC(=O)[C@H](CCCNC(=N)N)NC(=O)[C@H](CCCCN)NC(=O)[C@H](CO)NC(=O)[C@@H]1CCCN1C(=O)[C@H](CCCCN)NC(=O)[C@H](CO)NC(=O)[C@@H]1CCCN1C(=O)CNC(=O)CNC(=O)CNC(=O)[C@@H](N)CS)C(=O)N[C@@H](CCC(=O)O)C(=O)N[C@@H](CC(=O)O)C(=O)N[C@@H](CC(C)C)C(=O)N[C@@H](CC(C)C)C(=O)N[C@@H](Cc1ccccc1)C(=O)N[C@@H](CC(N)=O)C(=O)N[C@@H](CCCCN)C(=O)N[C@H](C(=O)O)C(C)C [COVID-826]
Observed water solubility [1]: Good

CGGGVFLQKYPHTHLVHQA [Myostatin 1]
Observed water solubility [1]: Good

CSGGGDWFKAFYDKVAEKFKEAF [ApoAI-4FN]
Observed water solubility [1]: Good

CSGGGWGWSLSHGYQVK [ScG3]
Observed water solubility [1]: Good

YQDMVLWKDVFRKNNQLAPVGPSLC [CH401-Rat]
solubility in the reaction buffer [1]: insoluble | Observed water solubility [1]: Poor

B1: TMV-Cy5.5 (+F127): Cy5.5 conjugated to TMV lysines via NHS ester, COAT method; Table 4 row Cy5.5 NHS (+F127) (conjugate, UniProt P69687 2-159, looked up)
Capsid protein: SYSITTPSQFVFLSSAWADPIELINLCTNALGNQFQTQQARTVVQRQFSEVWKPSPQVTVRFPDSDFKVYRYNAVLDPLVTALLGAFDTRNRIIEVENQANPTTAETLDATRRVDDATVAIRSAINNLIVELIRGTGSYNRSSFESSSGLVWTSGPAT
modifications: Cy5.5 dye, F127 coated virion
aggregation / dispersion of the particles [2]: dispersed and soluble, with no visible signs of aggregation | PDI [3]: 0.236 | Z-average [3]: 277.6 nm

B2: TMV-Cy5.5 (−F127): Cy5.5 conjugated to uncoated TMV, control; Table 4 row Cy5.5 NHS (−F127) (conjugate, UniProt P69687 2-159, looked up)
Capsid protein: SYSITTPSQFVFLSSAWADPIELINLCTNALGNQFQTQQARTVVQRQFSEVWKPSPQVTVRFPDSDFKVYRYNAVLDPLVTALLGAFDTRNRIIEVENQANPTTAETLDATRRVDDATVAIRSAINNLIVELIRGTGSYNRSSFESSSGLVWTSGPAT
modifications: Cy5.5 dye on whole virion
aggregation / dispersion of the particles [2]: prone to aggregation | PDI [3]: 0.749 | Z-average [3]: 436.8 nm
